Experiments:
Conditions in all cases: 72 h
Caco-2 [1] = assay: cell viability relative to DMSO; higher = less toxic
Calu-3 [2] = assay: as above
HepG2 [3] = assay: as above
U2OS [4] = assay: as above
Vero E6 [5] = assay: as above
Caco-2 [6] = assay: relative viability EC50 (midpoint between 100% and the lowest measured viability); higher = less toxic
Calu-3 [7] = assay: as above
U2OS [8] = assay: as above
Vero E6 [9] = assay: as above
Caco-2 [10] = assay: drug sensitivity score (DSS) for viability; higher = more toxic; extreme values may be limits of the assay
Calu-3 [11] = assay: as above
HepG2 [12] = assay: as above
U2OS [13] = assay: as above
Vero E6 [14] = assay: as above
HepG2 [15] = assay: relative viability EC50 (midpoint between 100% and the lowest measured viability); higher = less toxic

Structure (SMILES)	cell viability (Caco-2 [1]; 1 nM)	cell viability (Caco-2 [1]; 10 nM)	cell viability (Caco-2 [1]; 100 nM)	cell viability (Caco-2 [1]; 1000 nM)	cell viability (Caco-2 [1]; 10000 nM)	cell viability (Calu-3 [2]; 1 nM)	cell viability (Calu-3 [2]; 10 nM)	cell viability (Calu-3 [2]; 100 nM)	cell viability (Calu-3 [2]; 1000 nM)	cell viability (Calu-3 [2]; 10000 nM)	cell viability (HepG2 [3]; 1 nM)	cell viability (HepG2 [3]; 10 nM)	cell viability (HepG2 [3]; 100 nM)	cell viability (HepG2 [3]; 1000 nM)	cell viability (HepG2 [3]; 10000 nM)	cell viability (U2OS [4]; 1 nM)	cell viability (U2OS [4]; 10 nM)	cell viability (U2OS [4]; 100 nM)	cell viability (U2OS [4]; 1000 nM)	cell viability (U2OS [4]; 10000 nM)	cell viability (Vero E6 [5]; 1 nM)	cell viability (Vero E6 [5]; 10 nM)	cell viability (Vero E6 [5]; 100 nM)	cell viability (Vero E6 [5]; 1000 nM)	cell viability (Vero E6 [5]; 10000 nM)	relative viability EC50 (Caco-2 [6])	relative viability EC50 (Calu-3 [7])	relative viability EC50 (U2OS [8])	relative viability EC50 (Vero E6 [9])	drug sensitivity score (Caco-2 [10])	drug sensitivity score (Calu-3 [11])	drug sensitivity score (HepG2 [12])	drug sensitivity score (U2OS [13])	drug sensitivity score (Vero E6 [14])	relative viability EC50 (HepG2 [15])
CC(C)Oc1ccc(Cc2ccc(NC3=NCCN3)cc2)cc1	102%	96.1%	99.3%	99.4%	82.3%	104%	99.8%	95.7%	96.6%	88.2%	102%	94.6%	104%	97.4%	71.6%	95.3%	102%	95.3%	98.4%	90.7%	96.9%	97.6%	101%	99.5%	96.7%	> 10 µM	> 10 µM	> 10 µM	> 10 µM	0.5	0	1.6	0	0	
CCN(CC)Cc1ccc(C(=O)N(CCc2ccccc2OC)[C@@H]2CCNC2)cc1	99.2%	93%	91.6%	101%	98.2%						97.9%	96.6%	108%	104%	70.5%	95.5%	95.7%	96.9%	97.2%	99.3%	90.3%	97.9%	91.5%	93.1%	99.9%	> 10 µM		> 10 µM	> 10 µM	0		1	0	0	
COc1cc2nc(N3CCCN(C)CC3)nc(NC3CCN(Cc4ccccc4)CC3)c2cc1OC	96.1%	104%	88.9%	108%	54.9%	84.2%	100%	89.7%	94.1%	12.6%	98.8%	85.4%	91.4%	67.5%	10.3%	98%	100%	95%	96.6%	43.8%	106%	97.4%	99.7%	96.2%	26.1%		2.62 µM	2.69 µM	2.77 µM	1.9	5.7	8.8	3.5	4.6	1.37 µM
Cc1cc2c(N3CCCC3)nc(N3CCCC3)nc2n1C	103%	92.2%	96.9%	97.6%	71.8%	103%	110%	93.5%	94.5%	106%	109%	94.3%	101%	100%	78.4%	96.2%	101%	101%	101%	93.5%	104%	96%	104%	99.3%	93.5%		> 10 µM	> 10 µM	> 10 µM	1.5	0	0.7	0	0	> 10 µM
Cc1ccc(NC(=O)C(C)C)cc1C1CCN(Cc2ccc(Oc3ccc(F)c(F)c3)cc2)CC1	90.7%	101%	98.4%	98.3%	62.8%						105%	97.4%	97.4%	103%	31.5%	96.2%	95.8%	99.5%	94.6%	80.3%	106%	102%	99.5%	100%	75.3%			> 10 µM	> 10 µM	2		3.5	1.2	0.9	3.39 µM
O=C(NC[C@H](O)CN1CCc2ccccc2C1)c1cc(NC2COC2)ncn1	96.1%	92%	91%	95.5%	91.2%	103%	113%	104%	102%	91%	109%	104%	102%	88.2%	64.4%	102%	97%	97.5%	100%	101%	97.5%	97.2%	100%	95.8%	98.9%	> 10 µM	> 10 µM	> 10 µM	> 10 µM	0	0	3.4	0	0	
O=C(O)CCc1c[nH]c2ccccc12						98.7%	95.5%	95.2%	90.4%	107%	116%	96.7%	110%	105%	108%	98.5%	108%	106%	107%	106%	97.3%	99.5%	104%	102%	102%		> 10 µM	> 10 µM	> 10 µM		0	0	0	0	> 10 µM
O=C1NC(=O)/C(=C/c2ccc3c(c2)OC(F)(F)O3)S1	94.5%	97.9%	84.6%	81%	35.1%	97.4%	89.3%	46.8%	30.5%	24.7%	95.8%	95.6%	101%	98.9%	75.2%	94.3%	96.2%	89.6%	91.2%	51.3%	103%	94.6%	87.8%	63%	45.1%	1.62 µM	0.0473 µM		0.401 µM	5.6	20.7	1.1	4	8.2	> 10 µM
CN1c2ccccc2C(=O)N2CCc3c([nH]c4ccccc34)C21 (stereo in doubt) [evodiamine]	101%	99.6%	104%	76.1%	55.7%	96.8%	89.9%	96.7%	80.6%	62.4%	91.3%	94.5%	98.6%	47.3%	36.3%	94.7%	93.7%	99.7%	83.6%	43%	89.9%	100%	95.8%	74.1%	33.7%			1.44 µM	1.27 µM	5.2	3.8	9.9	5.5	6.7	0.508 µM
C[C@H]1[C@@H](O)O[C@@H]2O[C@@]3(C)CC[C@H]4[C@H](C)CC[C@@H]1[C@@]24OO3 [ARTENIMOL]	100%	102%	100%	88.9%	79.8%	93.8%	94.8%	97.5%	101%	98.6%	106%	100%	96.4%	97.2%	71.8%	96.5%	104%	92.4%	82.4%	31.8%	115%	99.1%	101%	103%	95.9%	> 10 µM	> 10 µM	1.57 µM	> 10 µM	1.7	0	1.6	6.3	0	
Cn1cc(CCn2cnc(-c3cnn(C)c3)c2-c2ccc(C#N)cc2)cn1 [BAZ2-ICR]																										> 10 µM	> 10 µM		> 10 µM	0	0	0	0	0	> 10 µM
Cc1ccccc1C(=O)c1ccc(Nc2ccc(Br)cc2N)cc1Cl [EO-1428]	103%	95.5%	92.3%	85.7%	74%	93%	96.6%	83.4%	90.8%	89.5%	97%	96%	98.3%	85.6%	108%	98.5%	101%	96.1%	96.2%	82.8%	96.7%	101%	93.4%	80.7%	92.2%		> 10 µM	> 10 µM	> 10 µM	2.4	0	0	0.7	0.7	> 10 µM
COc1ccc(-c2csc(NC(=O)[C@H]3CCCCN3S(=O)(=O)c3ccc(C)cc3)n2)cc1 [ML277]	89.5%	93.2%	97.8%	90.6%	69.2%	91%	104%	92.1%	92.6%	99.2%	97.7%	99.7%	112%	101%	60.1%	98.4%	98.1%	101%	94.2%	90.1%	109%	102%	105%	105%	99.9%		> 10 µM	> 10 µM	> 10 µM	2.6	0	1.9	0	0	
Nc1nccc(-c2ccc3noc(-c4ccc(Cl)cc4)c3c2)n1 [PIM-1-Inhibitor-2]	98%	97%	91.9%	102%	98.2%	100%	91.4%	99%	97%	88.8%	96.8%	94.2%	92.6%	92.7%	57.7%	98.3%	104%	93.2%	99.6%	93.6%	97.7%	103%	104%	98.5%	99.7%	> 10 µM	> 10 µM	> 10 µM	> 10 µM	0	0	3.4	0	0	
N#CSc1cc(SC#N)c(N)nc1N [PR-619]	93%	91.5%	93.6%	92.2%	85.4%	109%	94.5%	93.9%	107%	94.8%	104%	120%	108%	107%	55.4%	101%	96.4%	99%	94.1%	90.6%	92.3%	104%	103%	99.6%	77.3%	> 10 µM	> 10 µM	> 10 µM	> 10 µM	0	0	1.9	0	0.8	
FC(F)c1nc2ccccc2n1-c1nc(N2CCOCC2)nc(N2CCOCC2)n1 [ZSTK-474]	102%	99.2%	97.9%	68.2%	27.1%	101%	102%	95.3%	84%	40.6%	105%	106%	98.5%	75.6%	34.3%	96%	97.4%	98.1%	95.6%	60%	95.2%	101%	90.3%	69.8%	42.4%	1.14 µM	1.51 µM		0.768 µM	7.9	5.6	6.9	2.7	6.8	1.25 µM

Reference: the supplement of paper PMC13380429
